Results as given in patent publication US11654149B2, “Calmodulin inhibitors for the treatment of ribosomal disorders and ribosomapathies” (CHILDREN'S MEDICAL CENTER CORPORATION, priority 2012, dated 2023).
Entries after “also recorded” stand apart in the source; their conditions may differ. Where a name gives a salt, the structure may show the parent alone.

Legend:
[1] = test system: rps29−/− zebrafish embryos; assay: flk1 whole-mount in situ hybridization (intersegmental vessel staining) in rps29−/− embryo chemical screen; assay type: in vivo; conditions: rps29−/− embryos treated from bud to 23 hpf, flk1 ISH at 24 hpf
Procedure: Fish were maintained under approved laboratory conditions.
(§1) Whole-mount in situ hybridization (ISH) was performed as described (Thisse and Thisse, 2008). Antisense probes were synthesized from digested plasmid. O-Dianisidine was performed as described previously (Paffett-Lugassy and Zon, 2005).

[2] = test system: rps29 mutant embryos; assay: benzidine staining for hemoglobin levels in rps29 mutant embryos; assay type: in vivo, zebrafish; conditions: benzidine staining at 40 hpf
Procedure: Fish were maintained under approved laboratory conditions. […] .
as §1

[3] = test system: A549 cells; assay: flow cytometry of p53 and p21 protein in A549 cells with RPS19 shRNA; assay type: cell-based; conditions: for p21 protein level / p53 protein level: A549, RPS19 shRNA, drug 24 hours post infection, analyzed 3-6 days post infection
Procedure: (§2) A549 and CD34+ cells were infected with previously characterized lentiviral shRNA targeting RPS19 (Dutt et al., 2011). Unless otherwise noted, drugs were added one day post infection, and cells were collected for analysis 3-6 days post infection.
(§3) For flow cytometry based measurement of protein levels, cells were fixed in 2% paraformaldehyde for 15 minutes at 37° C., and methanol was added for overnight incubation at 4° C. Cells were incubated for one hour in 1:100 diluted p21 primary antibody (Cell Signaling 12D1) followed by one hour in conjugated secondary antibody and 1:50 diluted p53-conjugated antibody (Cell Signaling 1C12). Immunofluorescence staining was performed as previously described (Dutt et al., 2011).
The inventors next tested the effect of calmodulin inhibitors in A549 cells, where p53 is not mutated and is induced upon ribosomal protein knockdown (Fumagalli et al., 2009). A549 cells were infected with control or RPS19 shRNA and treated with A-3 or TFP 24 hours post infection. Cells were analyzed 3-6 days post infection. […] In addition, removal of drug leads to an increase in p21 levels within 24 hours (data not shown).

[4] = test system: A549 cells; assay: immunofluorescence staining for p53 and p21 nuclear localization in A549 cells with RPS19 knockdown; assay type: cell-based; conditions: for p53 nuclear staining intensity: p=0.00028 for A-3; for p53 nuclear accumulation: A549 cells
Procedure: as §2, §3
Immunofluorescence staining for p53 and p21 was performed on chemically treated cells (FIG. 4A). For 10-15 cells per condition, average nuclear and cytoplasmic intensity was determined using ImageJ.

[5] = test system: A549 cells; assay: flow cytometry for annexin and propidium iodide in A549 cells; assay type: cell-based
Procedure: (§4) FIGS. 4A-4D show treatment with A-3 inhibits p53 and p21 nuclear localization upon rps19 knockdown.
as §2

[6] = test system: A549 cells; assay: cell cycle status by flow cytometry (propidium iodide) in A549 cells; assay type: cell-based
Procedure: as §4, §2

[7] = test system: CD34+ cells; assay: p21 protein by FACS in CD34+ cells with RPS19 knockdown in erythroid proliferation media; assay type: cell-based, human
Procedure: as §2, §3
As DBA is a hematopoietic disorder, the inventors next tested the effects of A-3 in CD34+ cells with RPS19 knockdown by siRNA. In an in vitro system that mimics the differentiation of erythrocytes in vivo, the inventors knocked down RPS19 using shRNA. […] When RPS19 is reduced during erythroid differentiation, p21 mRNA levels increased about 6-fold compared to luciferase-infected controls and the transferrin receptor, CD71+ and a marker that is first detected at the proerythroblast stage, glycophorin A (GPA), are reduced 40% and 50%, respectively (Dutt et al., 2011).

[8] = test system: calmodulin dependent PDE1; conditions: cited from earlier work
[9] = test system: rps29−/− zebrafish embryos; assay: head morphology scoring in rps29−/− embryo chemical screen; conditions: 24 hpf
Procedure: Fish were maintained under approved laboratory conditions. Studies were performed on AB wildtype strains and hi2903, an insertional mutant in the first intron of ribosomal protein S29 (rps29). Embryos were subjected to chemicals diluted in E3. For screening, chemicals from ICCB Biomol Known Bioactive, Sigma, and Lopac libraries were tested at 1:300 dilutions from library stock. Compounds were tested in two independent experiments of 20 embryos each, so approximately 10 mutant embryos were scored per chemical. […] Nimodipine (Enzo) was diluted in DMSO and tested in doses from 1.5 to 20 μg/mL. SNAP (Cayman) was diluted in DMSO and tested in doses from 0.5 to 5 μg/mL. YS-035 (Sigma) was diluted in water and treated in doses from 0.8 to 8 μg/mL. Vinpocetine (Enzo) was diluted in ethanol and treated in doses from 0.3 to 3 μg/mL.
A screen was performed to identify chemicals that could rescue the endothelial and morphological defects of the rps29^−/− mutant embryo (FIG. 1A). Rps29^−/− fish were incrossed, and embryos were collected for treatment at bud stage (10 hpf). Embryos were treated from bud to 23 hpf with compounds of known bioactivity. After being scored for rescue of head morphology, embryos were fixed at 24 hpf for in situ hybridization of flk1 and rps29. Embryos without rps^29 staining (rps29^−/− mutants) were scored for rescue of flk1 intersegmental vessel staining.

[10] = test system: Human CD34+ cells; assay: in vitro erythroid differentiation assay of CD34+ cells with RPS19 shRNA; assay type: cell-based; design: p21 mRNA: dose or concentration left out as unconfirmed; conditions: for rescue of CD71+ expression: day 10 of erythroid differentiation, flow cytometry
Procedure: as §2
As DBA is a hematopoietic disorder, the inventors next tested the effects of A-3 in CD34+ cells with RPS19 knockdown by siRNA. In an in vitro system that mimics the differentiation of erythrocytes in vivo, the inventors knocked down RPS19 using shRNA. Human CD34+ cells are expanded in culture for 4 days and then infected with RPS19 shRNA or luciferase control shRNA lentiviral construct, selected with puromycin for 2 days and on day 7, the media is replaced with media containing high EPO to initiate erythroid differentiation (FIG. 6A). When RPS19 is reduced during erythroid differentiation, p21 mRNA levels increased about 6-fold compared to luciferase-infected controls and the transferrin receptor, CD71+ and a marker that is first detected at the proerythroblast stage, glycophorin A (GPA), are reduced 40% and 50%, respectively (Dutt et al., 2011).

[11] = test system: human T cells subjected to ionizing radiation; conditions: read-out: EC50, prevention of apoptosis; cited from earlier work
[12] = test system: ion channel currents (calcium, potassium and sodium channels); conditions: in vitro experiments and in animals; cited from earlier work
[13] = cited from earlier work
[14] = A549, RPS19 knockdown, ImageJ, 10-15 cells per condition

For CC(=O)N[C@@H](C(=O)O)C(C)(C)SN=O (racemic) [SNAP], the “rescue of flk1 expression / vasculature defect” value [1] was “rescued flk1 intersegmental vessel staining”.

In the case of NCCNS(=O)(=O)c1cccc2c(Cl)cccc12 [A-3], the “rescue of flk1 expression / vasculature defect” value [1] is reported as “did not rescue the vasculature”, the “rescue of hemoglobin levels” value [2] is reported as “rescue hemoglobin levels” and the p21 protein level [3] is reported as “statistically significant decrease; also recorded: decrease of p21 protein”. For the same compound, the p53 protein level [3] was “still increased; also recorded: without a matching decrease of p53”, the “time of treatment until p21 protein levels begin to decrease” value ([3]; A549, shorter treatment windows (FIG. 3E-3F, timecourse of A-3 treatment)) was at most 1.5 h and the “p53 nuclear staining intensity” value [4, 14] was “decreased”. For the same compound, the “p21 nuclear staining intensity” value ([4]; A549, RPS19 knockdown, ImageJ, 10-15 cells per condition, p=0.007 for A-3) was “decreased”, the p53 nuclear accumulation [4] was “reversed p53 nuclear accumulation” and the “annexin V positivity” value [5] was “increased annexin V positivity”. The “effect on RPS19 shRNA induced cell cycle arrest” value [6] was “no obvious effect”, the “concentration decreasing the levels of p21 in CD34+ cells” value ([7]; CD34+ cells in an erythroid cell population in vitro) was 1 to 50 µM and the p21 protein ([7]; CD34+ cells, RPS19 knockdown, erythroid proliferation media) was “decrease p21 protein”. The “inhibition of calmodulin dependent PDE1 compared with other calmodulin-dependent enzymes” value [8] was “less effective inhibitor” and the “rescue of head morphology” value [9] was “rescued the morphology”.

With Cl.NCCCCCCCCCCNS(=O)(=O)c1cccc2c(Cl)cccc12 [A-7] the “rescue of flk1 expression / vasculature defect” value [1] was “rescue the vasculature defect”.

In the case of NC(=O)c1ccc2[nH]c(-c3ccc(Oc4ccc(Cl)cc4)cc3)nc2c1 [BML-277], the p53 nuclear accumulation [4] is given as “prevented nuclear accumulation of p53”, the “rescue of CD71+ levels” value ([10]; inhibitor panel against individual calmodulin-dependent enzymes) is given as “rescued CD71+ levels” and the EC50 [11] is given as 3 to 7.6 µM.

With CC1(CN2CCC(n3c(=O)[nH]c4ccccc43)CC2)OCc2ccccc2-n2cccc21 (centres unmarked) [CGS-9343B, zaldaride maleate] the “rescue of flk1 expression / vasculature defect” value [1] was “rescued flk1 expression”.

For CN1CCN(CCCN2c3ccccc3Sc3ccc(C(F)(F)F)cc32)CC1 [TFP, 10-[3-(4-methylpiperazin-1-yl)propyl]-2-(trifluoromethyl)-10H-phenothiazine], the “rescue of flk1 expression / vasculature defect” value [1] was “rescued flk1 expression”, the p21 protein level [3] was “statistically significant decrease; also recorded: decrease of p21 protein” and the p53 protein level [3] was “still increased; also recorded: without a matching decrease of p53”. For the same compound, the “p53 nuclear staining intensity” value [4, 14] was “same effect was seen”, the p53 nuclear accumulation [4] was “reversed p53 nuclear accumulation” and the “annexin V positivity” value [5] was “increased annexin V positivity”. For the same compound, the “effect on RPS19 shRNA induced cell cycle arrest” value [6] was “no obvious effect”, the “rescue of blood cell differentiation” value [10] was “can rescue blood cell differentiation” and the “p21 mRNA” value ([10]; RPS19 shRNA, quantitative PCR) was “decreased p21 mRNA to control levels”. For the same compound, the “rescue of CD71+ expression” value ([10]; RPS19 shRNA) was “rescue CD71+ expression” and the “concentration restoring the percentage of CD71+ cells” value ([10]; erythroid cell population in vitro) was 5 to 20 µM.

In the case of CCOC(=O)C1=C[C@]2(CC)CCCN3CCc4c(n1c1ccccc41)[C@@H]32 [Vinpocetine, ethyl apovincaminate], the “rescue of flk1 expression / vasculature defect” value [1] is reported as “a hit in the screen”.

For Cl.NCCCCCCNS(=O)(=O)c1cccc2ccccc12 [W-5], the “rescue of flk1 expression / vasculature defect” value [1] was “rescue the vasculature defect”.

With Cl.NCCCCCCNS(=O)(=O)c1cccc2c(Cl)cccc12 [W-7, N-(6-Aminohexyl)-5-chloro-1-naphthalenesulfonamide hydrochloride] the “rescue of flk1 expression / vasculature defect” value [1] was “rescue flk1 expression” and the “rescue of hemoglobin levels” value [2] was “rescues hemoglobin levels”.

For COc1ccc(CCN(C)CCc2ccc(OC)c(OC)c2)cc1OC [YS-035], the “rescue of flk1 expression / vasculature defect” value [1] was “rescued the vasculature defect”.

For CC(C)COCC(CN(Cc1ccccc1)c1ccccc1)N1CCCC1 (centres unmarked) [bepridil], the “IC50 for these processes” value [12] is given as “low micromolar range”.

In the case of OCCN1CCN(CCCN2c3ccccc3Sc3ccc(C(F)(F)F)cc32)CC1 [fluphenazine, 4-[3-[2-(trifluoromethyl)phenothiazin-10-yl]propyl]-1-piperazineethanol], the “rescue of blood cell differentiation” value [10] is reported as “can rescue blood cell differentiation” and the “rescue of CD71+ expression” value ([10]; RPS19 shRNA) is reported as “rescue CD71+ expression”.

In the case of OCCN1CCN(CCCN2c3ccccc3Sc3ccc(Cl)cc32)CC1 [perphenazine, 4-[3-(2-Chloro-10H-phenothiazin-10-yl)propyl]-1-piperazineethanol], the “rescue of blood cell differentiation” value [10] is listed as “can rescue blood cell differentiation” and the oral bioavailability [13] is listed as “approximately 40%”.
